In the supplement of paper PMC8882468:

How the values were obtained:
Assay in all cases: CTG-3D luminescence at 96 h relative to day-0 seeding control (ratio to day 0); higher = more growth / less cytotoxicity; PDxO 3D drug screen (set 2), 96 h, CTG-3D normalised to day-0 seeding control.
HCI-002 = tested on: HCI-002 (organoid from a triple-negative breast cancer xenograft)
HCI-015 = tested on: HCI-015 (organoid from a triple-negative breast cancer xenograft)
HCI-003.E2 = tested on: HCI-003.E2 (organoid from an ER-positive breast cancer xenograft)
HCI-027 = tested on: HCI-027 (organoid from a triple-negative breast cancer xenograft)
HCI-011.E2 = tested on: HCI-011.E2 (organoid from an ER-positive breast cancer xenograft)
HCI-012 = tested on: HCI-012 (organoid from a breast cancer xenograft)

CC(=O)c1c(C)c2cnc(Nc3ccc(N4CCNCC4)cn3)nc2n(C2CCCC2)c1=O [palbociclib]
CTG-3D luminescence at 96 h
Details	12.5 pM	0.00025 µM	0.005 µM	0.1 µM	1 µM	10 µM	100 µM	625 fM
HCI-002, days in culture: 127	2.7	3.03	2.72	3.1	2.26	2.38	2.33	2.77
HCI-002, days in culture: 155	4.87	4.92	5.53	4.73	3.5	3.42	2.36	5.36
HCI-002, days in culture: 168	3.15	3.17	3.77	2.95	3.02	2.23	1.63	4.09
HCI-011.E2, days in culture: 74	2.34	2.11	2.43	2.43	1.74	2.51	1.52	2.09
HCI-012, days in culture: 214	2.51	1.31	1.58	1.96	2.63	2.66	0.494	1.78
HCI-012, days in culture: 243	2.23	2.46	1.58	2.71	2.27	2.37	1.29	3.76
HCI-012, days in culture: 256	1.88	2.23	1.63	3.14	2.13	1.8	0.605	2.46
HCI-012, days in culture: 284	1.65	2.5	2.04	2.56	1.9	2.78	0.731	4.06
HCI-015, days in culture: 333	1.88	1.26	1.44	0.877	0.941	0.44	0.369	1.89
HCI-015, days in culture: 355	3.11	2.44	1.74	3.47	0.976	1.99	0.775	1.74
HCI-015, days in culture: 369	2.19	1.75	2.45	1.9	1.82	1.07	0.742	1.94
HCI-027, days in culture: 145	1.41	2.02	1.64	1.26	1.55	0.841	0.458	1.58
HCI-027, days in culture: 158	1.35	1.77	2.1	1.52	0.941	0.942	0.608	3.32
HCI-027, days in culture: 164	2.57	1.87	1.48	1.63	1.33	1.31	0.892	2.8
HCI-027, days in culture: 176	3.61	2.85	1.73	2.1	1.82	0.641	0.373	2.61
HCI-027, days in culture: 186	1.11	1.93	2.5	2.42	0.412	1.4	0.411	1.67

CTG-3D luminescence at 96 h
Details	12.5 pM	0.00025 µM	0.005 µM	0.1 µM	1 µM	10 µM	100 µM	625 fM
HCI-003.E2	2.52	2.44	2.53	2.82	2.21	1.92	0.594	2.88
HCI-011.E2	1.41	1.8	1.29	1.53	1.49	1.92	1.44	1.86

Cc1c(CN2CCN(C(=O)[C@H](C)O)CC2)sc2c(N3CCOCC3)nc(-c3cnc(N)nc3)nc12 [apitolisib]
CTG-3D luminescence at 96 h
Details	12.5 pM	0.00025 µM	0.005 µM	0.1 µM	1 µM	10 µM	100 µM	625 fM
HCI-002, days in culture: 127	2.45	2.82	2.96	2.58	1.05	0.803	0.805	2.74
HCI-002, days in culture: 155	5.36	5.25	5.97	4.01	1.36	0.808	0.848	4.72
HCI-002, days in culture: 168	3.42	3.42	4.23	2.67	1.16	0.818	0.75	3.69
HCI-011.E2, days in culture: 74	2.37	2.08	1.85	1.24	0.177	0.0892	0.218	2.23
HCI-012, days in culture: 214	3.46	3.38	1.52	1.74	0.672	0.176	0.0363	3.26
HCI-012, days in culture: 243	2.34	2.6	2.13	1.48	0.554	0.118	0.0299	2.51
HCI-012, days in culture: 256	2.08	2.2	2.08	2.67	0.805	0.1	0.0191	2.05
HCI-012, days in culture: 284	2.16	2.93	1.47	1.97	0.681	0.102	0.0089	3.29
HCI-015, days in culture: 333	2.19	1.99	1.89	1.33	0.434	0.445	0.394	1.94
HCI-015, days in culture: 355	2.9	4.1	1.01	2.04	0.803	0.711	0.182	1.38
HCI-015, days in culture: 369	2.06	1.76	2.05	1.61	0.917	0.622	0.691	1.69
HCI-027, days in culture: 145	1.36	2	1.85	1.14	0.404	0.297	0.262	1.64
HCI-027, days in culture: 158	2.21	2.37	2.99	2.07	0.609	1.12	0.342	6.72
HCI-027, days in culture: 164	1.35	2.18	2.6	1.92	0.894	0.441	0.389	1.48
HCI-027, days in culture: 176	3.68	2.63	1.06	1.66	0.9	0.431	0.271	1.29
HCI-027, days in culture: 186	1.37	1.93	1.13	0.973	0.319	0.706	0.112	2.34

CTG-3D luminescence at 96 h
Details	12.5 pM	0.00025 µM	0.005 µM	0.1 µM	1 µM	10 µM	100 µM	625 fM
HCI-003.E2	2.46	2.27	2.31	1.31	0.0639	0.0361	0.0424	2.82
HCI-011.E2	1.62	1.71	1.3004	0.978	0.232	0.17	0.377	1.89
